Assay results reported in PMC9770967, “Native holdup (nHU) to measure binding affinities from cell extracts” (Science Advances, 2022).

How the values were obtained:
Format in all cases: binding, human
[1] = biological target: SNX27_PDZ; assay: nHU-MS, SNX27_PDZ bait, total SH-SY5Y extracts; conditions: for pKapp_HU_not_filtered / pKapp_significant_binders_HU: apparent; for pKapp_HU_not_filtered: Eq. 2, not filtered for significance; for pKapp_significant_binders_HU: Eq. 2, significant binders (1 σ, P < 0.05); for BI_HU / FC_HU (log2 fold change) / Ratio_HU: n = 6
Experimental: (§1) The empty His6-AviTag-MBP-TEV vector was used to produce biotinylated MBP for control experiments. Proteins were coexpressed with BirA biotin ligase (PET21a-BirA, Addgene, no. 20857) in Escherichia coli BL21(DE3) cells. At isopropyl-β-D-thiogalactopyranoside (IPTG) induction (1 mM IPTG at 18°C overnight), 50 μM biotin was added to the media. Harvested cells were lysed in a buffer containing 50 mM tris (pH 7.5), 150 to 300 mM NaCl, 50 μM biotin, 2 mM β-mercaptoethanol, cOmplete EDTA-free protease inhibitor cocktail (Roche, Basel, Switzerland), 1% Triton X-100, and trace amount of deoxyribonuclease, ribonuclease, and lysozyme. Lysates were frozen at −20°C before further purification steps. Lysates were sonicated and centrifuged for clarification. Expressed proteins were captured on in-house prepacked Ni-IDA (Protino Ni-IDA Resin, Macherey-Nagel, Duren, Germany) columns and were washed with at least 10 column volumes of cold wash buffer [50 mM tris (pH 7.5), 150 mM NaCl, and 2 mM β-mercaptoethanol] before elution with 250 mM imidazole. The Ni elution was collected directly on a preequilibrated amylose column (amylose high flow resin, New England Biolabs, Ipswich, MA). Amylose column was washed with 5 column volumes of cold wash buffer before fractionated elution in a buffer containing 25 mM Hepes (pH 7.5), 150 mM NaCl, 1 mM TCEP, 10% glycerol, 5 mM maltose, and cOmplete EDTA-free protease inhibitor cocktail. The concentration of proteins was determined by their ultraviolet absorption at 280 nm before aliquots were snap-frozen in liquid nitrogen and stored at −80°C.
(§2) For saturating streptavidin resin with biotinylated peptides or biotin, 50 μl of streptavidin resin was mixed with biotin or peptide at 40 to 60 μM concentration in 6 to 6.5 resin volume for 60 min. To saturate streptavidin resin with biotinylated proteins, 50 μl of streptavidin resin (Streptavidin Sepharose High Performance, Cytiva) was mixed with biotinylated MBP or MBP-PDZ at 40 to 50 μM concentration in 20× resin volume for 60 min. After saturation, resins were washed a single time [10 resin volume, holdup buffer: 50 mM tris (pH 7.5), 300 mM NaCl, and 1 mM TCEP, 0.22-μm filtered] and were depleted with biotin (10 resin volume, 10 min, holdup buffer supplemented with 100 μM biotin). Last, resins were washed two times (10 resin volume, holdup buffer).
(§3) For single-point nHU experiments carried out at ~10 μM bait concentration, 50 μl of saturated streptavidin resin was mixed with 200 μl of cell lysate (2 mg/ml). Titration experiments were carried out by mixing control and bait-saturated resin and keeping the total resin volume constant; e.g., ~5 μM bait concentration can be achieved by mixing 25 μl of bait-saturated streptavidin resin with 25 μl of control resin and 200 μl of cell lysate (2 mg/ml). Control and bait-saturated resins were prepared in larger amounts, and a serial dilution was prepared with these presaturated resins to achieve different resin ratios.
(§4) Unless specified elswhere, the nHU mixture was incubated at 4°C for 2 hours. After the incubation ended, the resin was separated from the supernatant by a brief centrifugation (15 s, 2000 g). Then, half of the supernatant was removed by pipetting without any delay to avoid any resin contamination; e.g., 100 μl of supernatant is collected if 200 μl of cell lysate was used as analyte. Alternatively, the supernatant can be centrifuged an additional time to clarify it further, removing any possible resin contamination. In principle, the separation of the supernatant should be as fast as possible since any delay can perturb the equilibrium. […] Alternatively, the resin can be separated from the supernatant using filter plates (e.g., various products of Millipore, Burlington, MA) or spin columns (e.g., Pierce spin cups—cellulose acetate filter from Thermo Fisher Scientific, Waltham, MA) to achieve faster separation. […]

[2] = test system: SNX27_PDZ; assay: AP-MS control pull-down on leftover resin, SNX27_PDZ bait, total SH-SY5Y extracts; conditions: n = 6
Experimental: (§5) Leftover beads from nHU-MS experiments were washed three times immediately after the separation of the supernatant [10 resin volume in buffer containing 50 mM tris (pH 8.5), 150 mM NaCl, 1% Triton X-100, 10× cOmplete EDTA-free protease inhibitor cocktail, 2 mM EDTA, and 1 mM TCEP]. Then, the beads were washed two times [10 resin volume buffer containing 50 mM tris (pH 8.5), 150 mM NaCl, and 1 mM TCEP]. Last, captured protein was eluted from the resin in two steps, and the eluted fractions were pooled. For each elution, the beads were incubated for 30 min with three resin volume buffer containing 20 mM tris (pH 8.5), 100 mM NaCl, 500 μM TCEP, and 8 M urea. Between each step, the beads were separated by mild centrifugation, and the supernatant was removed by gentle pipetting.
(§6) The nHU samples were precipitated with trichloroacetic acid (TCA) 20% overnight at 4°C and centrifuged at 14,000 rpm for 10 min at 4°C. The protein pellets were washed twice with 1 ml of cold acetone and air-dried. The protein extracts were solubilized in 8 M urea, reduced with 5 mM TCEP for 30 min, and alkylated with 10 mM iodoacetamide for 30 min in the dark. Double digestion was performed at 37°C with 500 ng of endoproteinase Lys-C (Wako, Richmond, USA) for 4 hours, followed by fourfold dilution and an overnight digestion with 500 ng of trypsin (Promega, Charbonnieres les Bains, France). Peptide mixtures were then desalted on a C18 spin-column and dried on a speed vacuum.
(§7) Samples were analyzed using an Ultimate 3000 nano-RSLC coupled in line via a nano-electrospray ionization source, with an LTQ-Orbitrap ELITE mass spectrometer (Thermo Fisher Scientific, San Jose, CA) or with the Orbitrap Exploris 480 mass spectrometer (Thermo Fisher Scientific, Bremen, Germany) equipped with a high field asymmetric ion mobility spectrometry (FAIMS) module. Peptide mixtures were injected in 0.1% trifluoroacetic acid on a C18 Acclaim PepMap100 trap column [75 μm inner diameter (ID) × 2 cm, 3 μm, 100 Å, Thermo Fisher Scientific] for 3 min at 5 μl/min with 2% acetonitrile (ACN) and 0.1% formic acid (FA) in H2O and then separated on a C18 Acclaim PepMap100 nano-column (75 μm ID × 50 cm, 2.6 μm, 150 Å, Thermo Fisher Scientific) at 300 nl/min and 40°C with a 90-min linear gradient from 5 to 30% buffer B (A: 0.1% FA in H2O/B: 80% ACN, 0.1% FA in H2O) and regeneration at 5% B. Spray voltage was set to 2.1 kV and heated capillary temperature was set to 280°C.
For the Orbitrap Elite, the mass spectrometer was operated in positive ionization mode in data-dependent mode with survey scans from mass/charge ratio (m/z) 350 to 1500 acquired in the Orbitrap at a resolution of 120,000 at m/z 400. […]

[3] = biological target: full-length SNX27; assay: nHU-MS, recombinant full-length SNX27 bait, total Jurkat extracts; conditions: apparent, Fig. 4D, n = 6
Experimental: as §1, with “Amylose column was washed with 5 column volumes of cold wash buffer before fractionated elution in a buffer containing 25 mM Hepes (pH 7.5), 150 mM NaCl, 1 mM TCEP, 10% glycerol, 5 mM maltose, and cOmplete EDTA-free protease inhibitor cocktail.” left out, “−80°C. […]” for “−80°C.”

[4] = test system: SNX27_PDZ; assay: nHU-MS, SNX27_PDZ bait, total Jurkat extracts, series 1; conditions: Jurkat, series 1
Experimental: as §1, §2, §3, §4

[5] = test system: SNX27_PDZ; assay: AP-MS control pull-down on leftover resin, SNX27_PDZ bait, total Jurkat extracts; conditions: Jurkat, series 1; leftover resin; n = 6
Experimental: as §5, §6, §7
For the Orbitrap Elite, the mass spectrometer was operated in positive ionization mode in data-dependent mode with survey scans from mass/charge ratio (m/z) 350 to 1500 acquired in the Orbitrap at a resolution of 120,000 at m/z 400. The 20 most intense peaks from survey scans were selected for further fragmentation in the linear ion trap with an isolation window of 2.0 Da and were fragmented by collision-induced dissociation (CID) with a normalized collision energy of 35% (TOP 20 CID method). Unassigned and single-charged states were excluded from fragmentation. The ion target value for the survey scans (in the Orbitrap) and the MS2 mode (in the linear ion trap) were set to 1E6 and 5E3, respectively, and the maximum injection time was set to 100 ms for both scan modes. Dynamic exclusion was set to 20 s after one repeat count with mass width at ±10 parts per million (ppm). […]

| pKapp_HU_not_filtered [1] | pKapp_significant_binders_HU [1] | pKapp [3] | pKapp_significant_binders_HU ([4]; apparent, Eq. 2, significant binders (1 σ, P < 0.05)) | Substance | BI_HU [1] | FC_HU (log2 fold change) [1] | Ratio_HU [1] | FC_AP (log2 fold change) [2] | Ratio_AP [2] | BI_HU ([4]; n = 6) | FC_HU (log2 fold change) ([4]; n = 6) | Ratio_HU ([4]; n = 6) | FC_AP (log2 fold change) [5] | Ratio_AP [5] |
| --- | --- | --- | --- | --- | --- | --- | --- | --- | --- | --- | --- | --- | --- | --- |
| 4.715 | 4.715 | – | – | VTN: Vitronectin | 0.3408 | -0.6012 | 0.6592 | 0.6536 | 1.573 | – | – | – | – | – |
| – | – | 5.23 | – | VPS26B: component of the retromer complex | – | – | – | – | – | – | – | – | – | – |
| – | – | – | 4.572 | TXNDC12: Thioredoxin domain-containing protein 12 OS=Homo sapiens | – | – | – | – | – | 0.2712 | -0.4564 | 0.7288 | -0.5204 | 0.6972 |
| 4.672 | 4.672 | – | – | ELOC: Elongin-C | 0.3189 | -0.5541 | 0.6811 | -2.345 | 0.1968 | – | – | – | – | – |
